# Source: patent publication US10328053B2 (Gilead Sciences, Inc., priority 2016, dated 2019)
# What was measured:
# [1] = test system: pooled cryopreserved hepatocytes; assay: Hepatic Stability Assay (in vitro half-life method); type: in vitro ADME; parameters: dose or concentration left out as unconfirmed; conditions: 37° C., 1×10^6 cells/mL, 0-6 hours, LC-MS/MS, 39.5 hours is the maximum detectable half life
# In short: (§1)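 Pooled cryopreserved hepatocytes (1×10^6 cells/mL) incubated with compound at […] test concentration, 37° C.; samples at 0, 1, 3 and 6 h quantified by LC-MS/MS. Half-life from rate of compound disappearance, scaled to predicted hepatic clearance via well-stirred model.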
# [2] = test system: HBV AD38 viral particles in HepG2 cell line overexpressing NTCP; assay: HBV DNA Quantification Assay; type: cell-based; conditions: Hepatitis B virus, HepG2, 120 h, HBV-infected HepG2-NTCP cells, 5 days incubation, HBV DNA in culture supernatant (QuantiGene 2.0); geometric mean of a minimum of four determinations
# In short: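 NTCP-overexpressing HepG2 cells infected with AD38 virus at 4000 genome equivalents/cell for 4 days, then reseeded with serially diluted compound in DMEM, 2% FBS, 1% DMSO for 5 days.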
# [3] = Hepatic Stability Assay (in vitro half-life method); type: in vitro ADME; parameters: dose or concentration left out as unconfirmed; conditions: pooled cryopreserved hepatocytes, 37° C., 1×10^6 cells/mL, 0-6 hours, LC-MS/MS, 39.5 hours is the maximum detectable half life, read-out: t½ (converted)
# In short: as §1
t½ [1] [h],SMILES,EC50 [2] [nM],half-life [3] [h]
9.6,"CNC(=O)C1(NC(=O)C(=O)c2c(C)c(C(=O)Nc3ccc(F)c(Cl)c3)n3c2CCC3C)CC(F)(F)C1 (single isomer, unassigned) [Example 23, N-(3-chloro-4-fluorophenyl)-7-(2-((3,3-difluoro-1-(methylcarbamoyl)cyclobutyl)amino)-2-oxoacetyl)-3,6-dimethyl-2,3-dihydro-1H-pyrrolizine-5-carboxamide]",,
2.7,"CNC(=O)C1(NC(=O)C(=O)c2c(C)c(C(=O)Nc3ccc(F)c(Cl)c3)n3c2CCC3C)CC(F)(F)C1 (single isomer, unassigned) [Example 22, N-(3-chloro-4-fluorophenyl)-7-(2-((3,3-difluoro-1-(methylcarbamoyl)cyclobutyl)amino)-2-oxoacetyl)-3,6-dimethyl-2,3-dihydro-1H-pyrrolizine-5-carboxamide]",,
39.5,"Cc1c(C(=O)C(=O)NC2(c3c[nH]nn3)CC2)c2n(c1C(=O)Nc1ccc(F)cc1)CCC2 [Example 70, 7-(2-((1-(1H-1,2,3-triazol-4-yl)cyclopropyl)amino)-2-oxoacetyl)-N-(4-fluorophenyl)-6-methyl-2,3-dihydro-1H-pyrrolizine-5-carboxamide]",,
39.5,"Cc1c(C(=O)C(=O)NC2(C)CS(=O)(=O)C2)c2n(c1C(=O)Nc1ccc(F)c(C#N)c1)[C@@H]1C[C@@H]1C2 [Example 72, (1aR,6aR)—N-(3-cyano-4-fluorophenyl)-4-methyl-5-(2-((3-methyl-1,1-dioxidothietan-3-yl)amino)-2-oxoacetyl)-1,1a,6,6a-tetrahydrocyclopropa[b]pyrrolizine-3-carboxamide]",,
39.5,"CNC(=O)C1(NC(=O)C(=O)c2c(C)c(C(=O)Nc3ccc(F)c(C(F)F)c3)n3c2CCC3)CC(F)(F)C1 [Example 116, 7-(2-((3,3-difluoro-1-(methylcarbamoyl)cyclobutyl)amino)-2-oxoacetyl)-N-(3-(difluoromethyl)-4-fluorophenyl)-6-methyl-2,3-dihydro-1H-pyrrolizine-5-carboxamide]",,
39.5,"CNC(=O)C1(NC(=O)C(=O)c2c(C)c(C(=O)Nc3ccc(F)c(F)c3)n3c2C[C@@H](F)C3)CC(F)(F)C1 [Example 49, (R)-7-(2-((3,3-difluoro-1-(methylcarbamoyl)cyclobutyl)amino)-2-oxoacetyl)-N-(3,4-difluorophenyl)-2-fluoro-6-methyl-2,3-dihydro-1H-pyrrolizine-5-carboxamide]",,
39.5,"CNC(=O)C1(NC(=O)C(=O)c2c(C)c(C(=O)Nc3cccc(C(F)F)c3)n3c2CCC3)CC(F)(F)C1 [Example 115, 7-(2-((3,3-difluoro-1-(methylcarbamoyl)cyclobutyl)amino)-2-oxoacetyl)-N-(3-(difluoromethyl)phenyl)-6-methyl-2,3-dihydro-1H-pyrrolizine-5-carboxamide]",,
39.5,"Cc1c(C(=O)C(=O)NC2(c3c[nH]nn3)CC2)c2n(c1C(=O)Nc1ccnc(C(F)F)c1)[C@@H]1C[C@@H]1C2 [Example 56, (1aR,6aR)-5-(2-((1-(1H-1,2,3-triazol-4-yl)cyclopropyl)amino)-2-oxoacetyl)-N-(2-(difluoromethyl)pyridin-4-yl)-4-methyl-1,1a,6,6a-tetrahydrocyclopropa[b]pyrrolizine-3-carboxamide]",,
,"Cc1c(C(=O)C(=O)NC2(c3c[nH]nn3)CC(F)(F)C2)c2n(c1C(=O)Nc1ccc(F)cc1)C[C@H](F)C2 [Example 48, (R)-7-(2-((3,3-difluoro-1-(1H-1,2,3-triazol-4-yl)cyclobutyl)amino)-2-oxoacetyl)-2-fluoro-N-(4-fluorophenyl)-6-methyl-2,3-dihydro-1H-pyrrolizine-5-carboxamide]",6.5,7.9
,"Cc1c(C(=O)C(=O)NC2(C(=O)N3CC4(COC4)C3)CC(F)(F)C2)c2n(c1C(=O)Nc1ccc(F)c(Cl)c1)CCC2 [Example 27, N-(3-chloro-4-fluorophenyl)-7-(2-((3,3-difluoro-1-(2-oxa-6-azaspiro[3.3]heptane-6-carbonyl)cyclobutyl)amino)-2-oxoacetyl)-6-methyl-2,3-dihydro-1H-pyrrolizine-5-carboxamide]",32.3,0.9
,"Cc1c(C(=O)C(=O)NC2(C)CS(=O)(=O)C2)c2n(c1C(=O)Nc1ccc(F)c(Cl)c1)CCC2 [Example 21, N-(3-chloro-4-fluorophenyl)-6-methyl-7-(2-((3-methyl-1,1-dioxidothietan-3-yl)amino)-2-oxoacetyl)-2,3-dihydro-1H-pyrrolizine-5-carboxamide]",20.1,17.1
,"Cc1c(C(=O)C(=O)NC2(c3c[nH]nn3)CC(F)(F)C2)c2n(c1C(=O)Nc1ccc(F)c(Cl)c1)CCC2 [Example 29, N-(3-chloro-4-fluorophenyl)-7-(2-((3,3-difluoro-1-(1H-1,2,3-triazol-4-yl)cyclobutyl)amino)-2-oxoacetyl)-6-methyl-2,3-dihydro-1H-pyrrolizine-5-carboxamide]",3.1,16.1
,"Cc1c(C(=O)C(=O)NC2(c3c[nH]nn3)CC(F)(F)C2)c2n(c1C(=O)Nc1ccc(F)c(C#N)c1)[C@@H]1C[C@@H]1C2 [Example 41, (1aR,6aR)—N-(3-cyano-4-fluorophenyl)-5-(2-((3,3-difluoro-1-(1H-1,2,3-triazol-4-yl)cyclobutyl)amino)-2-oxoacetyl)-4-methyl-1,1a,6,6a-tetrahydrocyclopropa[b]pyrrolizine-3-carboxamide]",7.5,4.9
,"Cc1c(C(=O)C(=O)NC2(c3ccccc3)CC2)c2n(c1C(=O)Nc1ccc(F)c(Cl)c1)CCC2 [Example 66, N-(3-chloro-4-fluorophenyl)-6-methyl-7-(2-oxo-2-((1-phenylcyclopropyl)amino)acetyl)-2,3-dihydro-1H-pyrrolizine-5-carboxamide]",6.5,1.4
,"Cc1c(C(=O)C(=O)NC2(C(=O)N3CC4(C3)CS(=O)(=O)C4)CC(F)(F)C2)c2n(c1C(=O)Nc1ccc(F)c(Cl)c1)CCC2 [Example 13, N-(3-chloro-4-fluorophenyl)-7-(2-((1-(2,2-dioxido-2-thia-6-azaspiro[3.3]heptane-6-carbonyl)-3,3-difluorocyclobutyl)amino)-2-oxoacetyl)-6-methyl-2,3-dihydro-1H-pyrrolizine-5-carboxamide]",252,16.4
39.5,"CNC(=O)C1(NC(=O)C(=O)c2c(C)c(C(=O)Nc3ccc(F)cc3)n3c2CCC3)CC(F)(F)C1 [Example 47, 7-(2-((3,3-difluoro-1-(methylcarbamoyl)cyclobutyl)amino)-2-oxoacetyl)-N-(4-fluorophenyl)-6-methyl-2,3-dihydro-1H-pyrrolizine-5-carboxamide]",,
,"Cc1c(C(=O)C(=O)NC2(c3nncs3)CC2)c2n(c1C(=O)Nc1cc(F)c(F)c(F)c1)[C@@H]1C[C@@H]1C2 [Example 57, (1aR,6aR)-5-(2-((1-(1,3,4-thiadiazol-2-yl)cyclopropyl)amino)-2-oxoacetyl)-4-methyl-N-(3,4,5-trifluorophenyl)-1,1a,6,6a-tetrahydrocyclopropa[b]pyrrolizine-3-carboxamide]",9.9,8

SMILES,t½ [1] [h],EC50 [2] [nM],half-life [3] [h]
"Cc1c(C(=O)C(=O)N[C@H](C)C(F)(F)F)c2n(c1C(=O)Nc1ccc(F)c(Cl)c1)C(C)CC2 (single isomer, unassigned) [Example 25]",9.1,,
"CNC(=O)C1(NC(=O)C(=O)c2c(C)c(C(=O)Nc3ccc(F)c(C#N)c3)n3c2CCC3)CC(F)(F)C1 [Example 35, N-(3-cyano-4-fluorophenyl)-7-(2-((3,3-difluoro-1-(methylcarbamoyl)cyclobutyl)amino)-2-oxoacetyl)-6-methyl-2,3-dihydro-1H-pyrrolizine-5-carboxamide]",39.5,109,
"CNC(=O)C1(NC(=O)C(=O)c2c(C)c(C(=O)Nc3ccc(F)c(F)c3)n3c2CCC3)CC(F)(F)C1 [Example 44, 7-(2-((3,3-difluoro-1-(methylcarbamoyl)cyclobutyl)amino)-2-oxoacetyl)-N-(3,4-difluorophenyl)-6-methyl-2,3-dihydro-1H-pyrrolizine-5-carboxamide]",39.5,31,
